Data: patent EP4722365A1, “DOUBLE-STRANDED NUCLEOTIDE COMPOUND FOR METABOLIC DISEASES AND USE THEREOF” (Visirna Therapeutics (Suzhou) Co., Ltd., priority 2023, dated 2024)

Columns and labels:
Type in all cases: in vivo
hDGAT2 = assay: Mouse model receiving hydrodynamic injection of DGAT2 plasmid via tail vein (Example 5, liver mRNA qPCR); conditions: for Average inhibition rate, % Day 1 after HDI (day 5 after administration): 3mpk subcutaneously day 0, HDI day 4, BALB/c mice; for Average inhibition rate, % Day 1 after HDI (day 15 after administration): 3mpk subcutaneously day 0, HDI day 14, BALB/c mice
Method: BALB/c mice, female, 6-7 weeks old.
pcDNA-DGAT2 plasmid, having a concentration of 2 µg/µL, diluted with physiological saline for later use.
The hydrodynamic injection scheme of DGAT2 plasmid DNA via tail vein, the administration and the sample collection method were as follows.
Treatment with compound: The day of administration to mice was defined as day 0, the day before it was day -1, the day after it was day 1, and so on. On day 0, the mice were injected subcutaneously with 5 mL/kg of the solvent or the test compound, at a dosage of 3mpk.
(§1) Hydrodynamic injection of DGAT2 plasmid DNA solution into mice via tail vein: On day 4 or 14, the plasmid DNA was prepared with normal saline before injection, and stored at 4°C until use. All mice were injected with the plasmid DNA solution in a volume of 8% of the body weight (injection volume (mL)= body weight of mice (g) x 8%) in 5 seconds via the tail vein, and the weight of plasmid injected into each mouse was 10 µg.
Endpoint of the experiment and collection of liver samples: On day 5 or 15, that is, 24 hrs after the hydrodynamic injection of DGAT2 plasmid via the tail vein, all mice were euthanized by CO2 inhalation. After euthanasia, blood samples were collected from the heart and liver samples were collected. 2 liver tissues of about 70 mg were immersed in RNAlater®, and incubated overnight at 4 °C. The supernatant was discarded and the remainder was transferred to a freezer at -80°C, for mRNA detection later.
RNA in the liver was extracted with Trizol. The method was briefly described as follows: 50-70 mg of liver tissue and 1.2 mL of Trizol were homogenized with Qiagen Tissue Lyser II at 26 Hz for 2 min and lyzed at room temperature for 5 min. 1 mL of the supernatant was taken, added to 200 uL of chloroform, vigorously shaken for 15 s, allowed to stand for 3 min, and centrifuged. The supernatant was collected, added with an equal volume of isopropanol, and stood overnight at -20°C for precipitation. The precipitate was washed twice with 70% , and dissolved in water without RNase. The concentration of the RNA sample was determined by Nanodrop ONE and diluted to 400 ng/uL with water without RNase for reverse transcription.
The experimental steps of reverse transcription could be made reference to the instruction of FastKing cDNA first strand synthesis kit (genome clean). Briefly, a gDNA removal mixture was prepared according to Table 6. The mixture (5 µL/sample) and 400 ng/µL RNA sample were added to a 96-well PCR reaction plate, incubated at 42°C for 3 min, and cooled on ice. A mixture for reverse transcription was prepared according to Table 7. The reverse transcription mixture (10 µL/sample) and the DNA removal product of the previous step were added to a 96-well PCR reaction plate, for reverse transcription. Reaction conditions: 42°C for 15 min; and 95°C for 3 min. The cDNA was stored at 4°C for further analysis. Table 6. Ingredients for gDNA-removal reaction
Reaction conditions: 95°C for 10 min; and 40 cycles of 95°C for 15 s, and 60°C for 1 min. Table 8. Ingredients for qPCR Reaction (DGAT2)
(§2) The expression of the target gene in each sample was analyzed by relative quantification using ΔΔCt method. In this method, the Ct difference (ΔCt) between the target gene (DGAT2) and the internal reference gene (Neo) was determined, and the ΔCt value of the sample treated with the compound was compared with that of the control group.
The formula is: ΔCt = average Ct value of target gene−average Ct value of reference gene. [formula] [formula]
Data analysis: The data are expressed as the average of each group of mouse samples ± standard error. Unless otherwise specified, n=4 or 5. Student's t test was used for statistical analysis. Table 10.1 Test for evaluating the in-vivo inhibitory activity of siRNA compounds on target gene DGAT2 in mice model receiving hDGAT2 HDI 5 days after administration

human DGAT2 [1] = assay: Mice receiving hydrodynamic injection of human DGAT2 plasmid via the tail vein (Example 7); conditions: 3 mg/kg subcutaneous single dose day 0; BALB/c mice, liver DGAT2 mRNA
Method: (§3) Animals: BALB/c mice, female, 6-7 weeks old.
(§4) DGAT2 plasmid DNA: pcDNA-DGAT2 plasmid, having a concentration of 2 µg/µL, diluted with physiological saline for later use.
The in-vivo experimental designs for the hydrodynamic injection of DGAT2 plasmid DNA via the tail vein, the administration, and the sample collection method were shown in the table below.
Treatment with compound: The day of administration to mice was defined as day 0, the day before it was day -1, the day after it was day 1, and so on. On day 0, the mice were injected subcutaneously with 5 mL/kg of the solvent or the test compound.
as §1, with “day” for “day 4 or”, “µg. […]” for “µg.”
(§5) RNA in the liver was extracted with Trizol. The concentration of the RNA sample was determined by Nanodrop ONE (ultra-micro ultraviolet-visible spectrophotometer) and diluted to 400 ng/uL with water without RNase for reverse transcription. Quantitative PCR detection of DGAT2 and NEO gene expressions in mouse liver: […]

DGAT2 = assay: Inhibitory activity on the target gene DGAT2 in mice (Example 6, liver mRNA RT-PCR); conditions: 3 mg/kg SC, day 0, once; C57BL/6 mice, liver mRNA day 7
Excerpt: Animals: Male C57BL/6 mice, 6 weeks old, without particular pathogens. Before the experiment, the animals were allowed to acclimate to the environment for 7 days.
Solvent: phosphate buffer (PBS).
In-vivo experiment: The in-vivo experimental designs for the animal administration and the sample collection method were shown in the table below.
Definition of days of experiment: The day of first administration to mice was defined as day 0, the day before it was day -1, the day after it was day 1, and so on.
All mice were given a single dose of PBS, the control compound or the test compound by SC on day 0. On day 7, blood was taken from the submandibular vein plexus mice, and the plasma was collected. Then the mice were euthanized. Blood was taken from the heart for later use. The liver was collected for analysis of target mRNA level in the liver.
Sample detection and analysis: RT-PCR was used to quantitatively detect the level of target mRNA in liver tissue.
as §2, with “(GAPDH)” for “(Neo)”, “group. […]” for “group.”
Data analysis: The data are expressed as the average of each group of mouse samples ± standard error. […]

human DGAT2 [2] = assay: Mice receiving hydrodynamic injection of human DGAT2 plasmid via the tail vein (Example 8); conditions: 3 mg/kg subcutaneous single dose day 0; BALB/c mice, liver DGAT2 mRNA
Method: as §3, §4
Experimental method: The in-vivo experimental designs for the hydrodynamic injection of DGAT2 plasmid DNA, the administration and the sample collection method were shown in the table below.
Treatment with compound: The day of administration to mice was defined as day 0, the day before it was day -1, the day after it was day 1, and so on. On day 0, the mice were injected subcutaneously with 5 mL/kg of the solvent or the test compound,
Hydrodynamic injection of DGAT2 plasmid DNA solution into mice via tail vein: On day 14, the plasmid DNA was prepared with normal saline before injection, and stored at 4°C until use. […]
as §5, with “Quantitative PCR detection of DGAT2 gene expression in mouse liver: RNA in” for “RNA in”

Substance | Average inhibition rate, % Day 1 after HDI (day 5 after administration) (hDGAT2) | Average inhibition rate, % Day 1 after HDI (day 15 after administration) (hDGAT2) | other results
dS301: sense (invAb)*gaagaaguUfCfCfagaaauacau*(invAb)[L96]; anti-sense a*Uf*g*UfaUfuucugGfaAfcUfuCfuUf*c | 91.68% | 78.89% | Average inhibition rate, % (Day 15 after administration) (human DGAT2 [1]): 79%
dS305: sense [NAG37](invAb)*uggguuauUfUfAfaaagaaauua*(invAb ); anti-sense u*Af*a*UfuUfcuuuuAfaAfuAfaCfcCf*a | 95.59% | – | –
dS306: sense [NAG37](invAb)*uguggguuAfUfUfuaaaagaaau*(invAb ); anti-sense a*Uf*u*UfcUfuuuaaAfuAfaCfcCfaCf*a | 96.72% | – | –
dS304: sense (invAb)*cgcuacuuUfCfGfagacuacuuu*(invAb)[L96]; anti-sense a*Af*a*GfuAfgucucGfaAfaGfuAfgCf*g | 66.33% | – | –
dS307: sense (invAb)*ggugucugUfGfGfguuauuuaaa*(invAb)*[L96]; anti-sense Vpu*Uf*Uf*AfaauaaccCfaCfaGfacac*c | – | 61.03% | Average inhibition rate (%) (7 days) (DGAT2): 76%
dS316: sense (invAb)*gaagaaguUfCfCfagaaauacaa[L96]; anti-sense Vpu*Uf*g*UfaUfuucugGfaAfcUfuCfuUf* c | – | – | Average inhibition rate, % (Day 15 after administration) (human DGAT2 [1]): 66%
dS302: sense (invAb)*acaccauaGfAfCfuauuugcuuu*(invAb)[L96]; anti-sense a* Af*a*GfcAfaauagUfcUfaUfgGfuGf*u | 97.46% | 70.35% | Average inhibition rate, % (Day 15 after administration) (human DGAT2 [2]): 70.4%
dS303: sense (invAb)*uguacauaUfUfCfugcacugauu*(invAb)[L96]; anti-sense a* Af*u*CfaGfugcagAfaUfaUfgUfaCf*a | 85.53% | – | –
